Values joined by “and” are separate entries in the source; they are usually repeats but may differ in a detail not shown here. Equal entries are not always repeated.
Settings: Liquid, Closed cell (Static) method

C[CH2][Sb]([CH2]C)[CH2]C [triethylstibine]
Settings	vapor or sublimation pressure
238.42 K	0.0037 kPa
243.46 K	0.00611 kPa and 0.0061 kPa
248.47 K	0.00991 kPa and 0.00989 kPa and 0.0099 kPa
253.48 K	0.01569 kPa
258.48 K	0.02451 kPa and 0.02448 kPa and 0.02449 kPa
263.48 K	0.03735 kPa and 0.03734 kPa and 0.03733 kPa
268.48 K	0.0557 kPa and 0.05561 kPa and 0.0556 kPa
273.68 K	0.08268 kPa [middle of 4 runs]
278.49 K	0.1181 kPa and 0.118 kPa
283.49 K	0.1676 kPa
285.99 K	0.1995 kPa
288.49 K	0.2362 kPa and 0.2363 kPa
290.99 K	0.2791 kPa and 0.279 kPa
293.49 K	0.3288 kPa and 0.3282 kPa and 0.3281 kPa
295.99 K	0.3849 kPa and 0.385 kPa
298.49 K	0.4505 kPa and 0.4504 kPa and 0.4503 kPa
301 K	0.5246 kPa

— the NIST ThermoML archive (doi:10.1016/j.jct.2005.05.018)
